Reference: US10562869B2, “Oxadiazole compounds” (REMYND NV, priority 2014, dated 2020)

Key:
INS-1E cells = test: Cytokine-induced caspase-3/7 activation in INS-1E cells (beta cell stress/apoptosis model, Caspase-Glo 3/7); assay type: cell-based; details: Rattus norvegicus, cytokine mix (IFN-γ, IL-1β, TNF-α), 24 hours, caspase 3/7 activity, read-out: CYT EC50
Description: The INS-1E cell line, a rat insulinoma cell line, has been characterized extensively. INS-1E cells respond to glucose by secreting insulin and, unlike most other immortalized β-cell lines, they do this in a consistent manner over time. The cells are sensitive to hyperglycemia-, free fatty acid (FFA)-, and cytokine-induced stress. Prolonged stress ultimately leads to induction of apoptotic pathways and, if stress is not counter-acted, to apoptosis. Caspase-3 and -7 play a central role downstream where various apoptotic pathways merge. As such, activation (i.e. cleavage) of these caspases forms a relevant primary read-out to evaluate protective activity of compounds against stress-induced apoptosis.
To evaluate the efficacy of different compounds to prevent induction of apoptosis, an in vitro screen was developed in which INS-1E cells were exposed to a cytokine mix (IFN-γ, 5 ng/ml; IL-1β, 20 pg/ml; TNF-α, 0.25 ng/ml). The degree of induction of apoptosis was evaluated using a substrate for cleaved caspase-3 and -7, i.e. a proluminescent caspase-3/7 DEVD aminoluciferin substrate with a thermostable luciferase (Caspase-Glo® 3/7 assay; Promega, cat. G8092).
On day 0, INS-1E cells were plated in a white-walled 96-well microplate (Greiner, cat. 655098) at 20,000 cells per well in 100 μl complete medium (RPMI containing 11 mM glucose supplemented with 5% FCS, 100 IU/ml penicillin, 100 μg/ml streptomycin, 10 mM HEPES, 1 mM Sodium Pyruvate and 50 μM 2-Mercapto-ethanol). On day 2, 100 μl medium containing cytokines and compound dissolved in DMSO was added to the cells. Wells without cytokines containing DMSO and wells with cytokines and DMSO were included to evaluate the degree of caspase 3/7 activation by the cytokine mix. After 24 hours exposure to cytokines and/or compound, Caspase-Glo® 3/7 reagent was added to the cells and caspase activity was determined by measuring luminescence.
To evaluate compound efficacy, the “toxicity window” was calculated by subtracting caspase activity of wells without stressor from activity of wells with stressor but without compound. The amount of caspase activity in the latter wells was normalized to 1 and used as reference. Subsequently, caspase activity in the wells with stressor and varying concentrations of compound was calculated relative to the wells without compound. Plotting caspase activity vs the log 10 of the concentration of compound permitted calculation of the EC50 values for the compounds which typically lied between 0.0001 and 10 μM. Compounds with an EC50<10 μM were considered active.

M17_3SYN cells = test: Paraquat-induced cytotoxicity (LDH) in α-synuclein over-expressing M17_3SYN neuroblastoma cells; assay type: cell-based, human; details: Homo sapiens, Neuroblastoma cell, 48 h, toxicity inhibition (LDH) in M17_3SYN cells challenged with 6 mM paraquat, 2 days; read-out: SYN EC50
Summary of the method: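 Human BE-M17 neuroblastoma cells stably overexpressing wild-type α-synuclein challenged with paraquat (final 6 mM) for 2 days at 37 °C alongside compounds over a concentration range. Cytotoxicity as LDH released relative to total LDH; EC50 from dose-dependent inhibition curve.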

M17_3TAU(P301L) cells = test: Retinoic acid-induced cytotoxicity (LDH) in TAU-P301L expressing M17_3TAU(P301L) neuroblastoma cells; assay type: cell-based; details: Homo sapiens, Neuroblastoma cell, 168 h; toxicity inhibition (LDH) in M17_3TAU(P301L) cells challenged with retinoic acid, 7 days
Description: A TAU expression plasmid was constructed by sub-cloning the cDNA encoding for human TAU-P301L protein, wherein proline at position 301 was substituted by a leucine residue, into mammalian expression vector pcDNA3.1 resulting in the plasmid pcDNA3.1-TAUP301L. Plasmid pcDNA3.1-TAU P301L was transfected into human neuroblastoma cells (BE-M17; ATCC No. CRL-2267™) using lipofectamine reagent and subsequently, independent clonal cell lines with the plasmids stably integrated into the genome were selected by antibiotic resistance selection (Geneticin (G418)), resulting in cell line M17_3TAUP301L. Expression of the TAUP301L gene in the M17_3TAUP301L cells was confirmed by Western blot analysis.
M17_3TAU(P301L) cells were treated chronically with retinoic acid (RA) in low serum conditions to induce Alzheimer's disease-like intracellular signaling deregulation leading to increased TAU levels and subsequent cell death. Cytotoxicity of cells was measured by quantification of lactate dehydrogenase (LDH) levels. In dead cells LDH leaked out of the cells into the medium due to a loss of plasma-membrane integrity.
3 days preceding the experiment, a pre-culture of M17_3TAU(P301L) cells was prepared, starting from a stock culture, at a density of 50.000-100.000 cells/cm^2 in culture medium (Optimem Reduced Serum with phenol red (Invitrogen, Cat. 31985-047)) supplemented with 10% fetal calf serum (FCS), 1 mM sodium pyruvate, 1×non-essential amino acids (NEAA), 500 μg/ml G418 and 0.5×(ABAM). At the day of the experiment these precultures were diluted to ˜0.1·10^6 cells/ml in detection medium (Optimem Reduced Serum without phenol red (Gibco, Cat.11058-021) supplemented with 1% fetal calf serum (FCS), 1 mM sodium pyruvate, 1×non-essential amino acids (NEAA), 500 μg/ml G418 and 0.5×ABAM) and 60 μL of this suspension was dispensed per well into a 96-well microtiter plate. After 3 hours of incubation at 37° C./5% CO2 an equal volume of detection medium (without FCS) containing 3.75 μM RA was added and subsequently incubated for 7 days at 37° C./5% CO2. Then LDH activity was determined using the Promega Cytotox 96 Non-Radioactive cytotoxicity assay (Cat. G1780), according to the manufacturer's instructions. Cytotoxicity was defined as the ratio of LDH relative the total LDH in the cells and supernatant.
The assay described above using the M17_3TAU(P301L) cell line allowed to screen compounds for their ability to decrease cytotoxicity in RA-challenged cells. Compounds of the invention were tested for their ability to decrease toxicity at different concentrations, ranging from low non-effective concentrations to high potent concentrations. Afterwards, the dose-dependent inhibition curve was used to calculate their EC50. A compound was considered to be active in this test when it inhibited toxicity by more than 20% relative to untreated M17_3TAU(P301L) cells at a concentration of 10 μM or lower.

Row | SMILES | EC50 (INS-1E cells) [nM] | EC50 (M17_3SYN cells) [nM] | EC50 (M17_3TAU(P301L) cells) [nM]
1 | COc1ccc(S(=O)(=O)N2CCN(c3nc(C4(c5ccc(F)cc5)CC4)no3)CC2)cc1 [Cmpd105, 1-{3-[1-(4-Fluoro-phenyl)-cyclopropyl]-[1,2,4]oxadiazol-5-yl}-4-(4-methoxy-benzenesulfonyl)-piperazine] | 27 | 9 | –
2 | CCOc1ccc(S(=O)(=O)N2CCN(c3nc(C4(c5ccc(F)cc5)CC4)no3)CC2)cc1 [Cmpd106, 1-(4-Ethoxy-benzenesulfonyl)-4-{3-[1-(4-fluoro-phenyl)-cyclopropyl]-[1,2,4]oxadiazol-5-yl}-piperazine] | 99 | 65 | –
3 | COc1ccc(S(=O)(=O)N2CCN(c3nc(C(C)(C)c4ccc(F)cc4)no3)CC2)cc1 [Cmpd113, 1-{3-[1-(4-Fluoro-phenyl)-1-methyl-ethyl]-[1,2,4]oxadiazol-5-yl}-4-(4-methoxy-benzenesulfonyl)-piperazine] | 1 | 8 | –
4 | CSc1ccc(S(=O)(=O)N2CCN(c3nc(C(C)(C)c4ccc(F)cc4)no3)CC2)cc1 [Cmpd116, 1-{3-[1-(4-Fluoro-phenyl)-1-methyl-ethyl]-[1,2,4]oxadiazol-5-yl}-4-(4-methylsulfanyl-benzenesulfonyl)-piperazine] | 26 | 7 | –
5 | COc1ccc(S(=O)(=O)N2CCN(c3nc(C4(c5ccccc5)CC4)no3)CC2)cc1 [Cmpd120, 1-(4-Methoxy-benzenesulfonyl)-4-[3-(1-phenyl-cyclopropyl)-[1,2,4]oxadiazol-5-yl]-piperazine] | 40 | 4 | –
6 | COc1cccc(CCN2CCN(c3nc(CC(F)(F)F)no3)CC2)c1 [Cmpd163, 5-(4-(3-Methoxyphenethyl)piperazin-1-yl)-3-(2,2,2-trifluoroethyl)-1,2,4-oxadiazole] | – | – | 418
7 | FC(F)(F)Cc1noc(N2CCN(CCc3ccc(Cl)cc3)CC2)n1 [Cmpd164, 5-(4-(4-Chlorophenethyl)piperazin-1-yl)-3-(2,2,2-trifluoroethyl)-1,2,4-oxadiazole] | – | – | 306
8 | Cc1cc(Cc2noc(N3CCN(CCc4ccc(Cl)cc4)CC3)n2)ccn1 [Cmpd170, 5-(4-(4-Chlorophenethyl)piperazin-1-yl)-3-((2-methylpyridin-4-yl)methyl)-1,2,4-oxadiazole] | – | – | 640
9 | FC(F)(F)CCc1noc(N2CCN(CCc3ccc(Cl)cc3)CC2)n1 [Cmpd174, 5-(4-(4-Chlorophenethyl)piperazin-1-yl)-3-(3,3,3-trifluoropropyl)-1,2,4-oxadiazole] | – | – | 24
10 | COc1cc(CCN2CCN(c3nc(CCC(F)(F)F)no3)CC2)ccn1 [Cmpd175, 5-(4-(2-(2-Methoxypyridin-4-yl)ethyl)piperazin-1-yl)-3-(3,3,3-trifluoropropyl)-1,2,4-oxadiazole] | – | – | 105
11 | Cc1ccccc1CN1CCN(c2nc(CCC(F)(F)F)no2)CC1 [Cmpd176, 5-(4-(2-Methylbenzyl)piperazin-1-yl)-3-(3,3,3-trifluoropropyl)-1,2,4-oxadiazole] | – | – | 169
12 | FC(F)(F)CCc1noc(N2CCN(Cc3ccccc3Cl)CC2)n1 [Cmpd177, 5-(4-(2-Chlorobenzyl)piperazin-1-yl)-3-(3,3,3-trifluoropropyl)-1,2,4-oxadiazole] | – | – | 172
13 | CC(C)CCN1CCN(c2nc(CCC(F)(F)F)no2)CC1 [Cmpd179, 5-(4-Isopentylpiperazin-1-yl)-3-(3,3,3-trifluoropropyl)-1,2,4-oxadiazole] | – | – | 46
14 | FC(F)(F)CCc1noc(N2CCN(CCN3CCOCC3)CC2)n1 [Cmpd180, 4-(2-(4-(3-(3,3,3-Trifluoropropyl)-1,2,4-oxadiazol-5-yl)piperazin-1-yl)ethyl)morpholine] | – | – | 222
15 | N#CCCCN1CCN(c2nc(CCC(F)(F)F)no2)CC1 [Cmpd181, 4-(4-(3-(3,3,3-Trifluoropropyl)-1,2,4-oxadiazol-5-yl)piperazin-1-yl)butanenitrile] | – | – | 584
16 | Cc1cccc(CN2CCN(c3nc(CCC(F)(F)F)no3)CC2)n1 [Cmpd182, 5-(4-((6-Methylpyridin-2-yl)methyl)piperazin-1-yl)-3-(3,3,3-trifluoropropyl)-1,2,4-oxadiazole] | – | – | 282
17 | FC(F)(F)c1ccc(-c2noc(N3CCN(CCc4ccc(Cl)cc4)CC3)n2)cc1 [Cmpd183, 1-[2-(4-Chloro-phenyl)-ethyl]-4-[3-(4-trifluoromethyl-phenyl)-[1,2,4]oxadiazol-5-yl]-piperazine] | – | – | 57
18 | Clc1ccccc1CN1CCN(c2nc(C3C[C@@H]4CC[C@H]3C4)no2)CC1 (stereo partly drawn) [Cmpd184, 3-((1S,4R)-bicyclo[2.2.1]heptan-2-yl)-5-(4-(2-chlorobenzyl)piperazin-1-yl)-1,2,4-oxadiazole] | – | – | 135
19 | Cc1ccc(CN2CCN(c3nc(C4C[C@@H]5CC[C@H]4C5)no3)CC2)cc1 (stereo partly drawn) [Cmpd185, 3-((1S,4R)-bicyclo[2.2.1]heptan-2-yl)-5-(4-(4-methylbenzyl)piperazin-1-yl)-1,2,4-oxadiazole] | – | – | 71
20 | Clc1ccc(CCN2CCN(c3nc(C4C[C@@H]5CC[C@H]4C5)no3)CC2)cc1 (stereo partly drawn) [Cmpd186, 3-((1S,4R)-bicyclo[2.2.1]heptan-2-yl)-5-(4-(4-chlorophenethyl)piperazin-1-yl)-1,2,4-oxadiazole] | – | – | 17
21 | COc1cc(CCN2CCN(c3nc(C4C[C@@H]5CC[C@H]4C5)no3)CC2)ccn1 (stereo partly drawn) [Cmpd187, 3-((1S,4R)-bicyclo[2.2.1]heptan-2-yl)-5-(4-(2-(2-methoxypyridin-4-yl)ethyl)piperazin-1-yl)-1,2,4-oxadiazole] | – | – | 47
22 | C1CN(CCN2CCN(c3nc(C4C[C@@H]5CC[C@H]4C5)no3)CC2)CCO1 (stereo partly drawn) [Cmpd188, 4-(2-(4-(3-((1S,4R)-bicyclo[2.2.1]heptan-2-yl)-1,2,4-oxadiazol-5-yl)piperazin-1-yl)ethyl)morpholine] | – | – | 4
23 | CC(C)CCN1CCN(c2nc(C3C[C@@H]4CC[C@H]3C4)no2)CC1 (stereo partly drawn) [Cmpd189, 3-((1S,4R)-bicyclo[2.2.1]heptan-2-yl)-5-(4-isopentylpiperazin-1-yl)-1,2,4-oxadiazole] | – | – | 3
